Results reported in patent US20240317714A1, “3-[(1H-PYRAZOL-R-YL)OXY]PYRAZIN-2-AMINE COMPOUNDS AS HPK1 INHIBITOR AND USE THEREOF” (BeiGene, Ltd., priority 2020, published 2024).
pIC50: −log10 of the molar value.

Tests used:
[1] = biological target: HPK1 kinase (aal-346. Life Technologies) (Homo sapiens (Human), UniProt Q92918); assay: HPK Kinase Activity Assay at 1 mM ATP (TR-FRET); assay type: biochemical; details: HPK1 kinase 40 nM, 0.5 μM STK1 substrate, read-out: Enzymatic activity IC50
[2] = system: pSLP76(S376) level in Jurkat cell line; assay: Cellular pSLP76(S376) HTRF Assay; assay type: cell-based; details: Homo sapiens, Jurkat, Jurkat cells, 2 h compound treatment, stimulated with 0.05 μg/mL anti-human CD3 (OKT3) for 30 min

HPK1 kinase (aal-346. Life Technologies), sequence (Q92918 1-346): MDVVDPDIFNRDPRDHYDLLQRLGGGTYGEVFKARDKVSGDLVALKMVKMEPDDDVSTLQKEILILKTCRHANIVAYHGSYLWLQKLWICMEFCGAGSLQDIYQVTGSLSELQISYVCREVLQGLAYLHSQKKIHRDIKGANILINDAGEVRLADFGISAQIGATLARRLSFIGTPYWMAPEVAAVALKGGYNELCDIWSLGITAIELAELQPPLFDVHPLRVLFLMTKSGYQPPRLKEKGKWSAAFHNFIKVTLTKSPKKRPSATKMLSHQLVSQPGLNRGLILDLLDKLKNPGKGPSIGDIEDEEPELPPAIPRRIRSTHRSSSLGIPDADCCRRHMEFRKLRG

Compound | pIC50 [1] | pIC50 [2]
Cc1cc(-c2cnc(N)c(Oc3cnn(C4CCN(C)CC4)c3)n2)cc(C)c1CNc1ccn(C)n1 [Example A56, 5-(3,5-dimethyl-4-(((1-methyl-1H-pyrazol-3-yl)amino)methyl)phenyl)-3-((1-(1-methylpiperidin-4-yl)-1H-pyrazol-4-yl)oxy)pyrazin-2-amine] | 7.28 | 7.07
Cc1cc(-c2cnc(N)c(Oc3cnn(C4CCN(C)CC4)c3)n2)cc(S(=O)(=O)NCCC#N)c1 [Example A10, 3-(5-amino-6-((1-(1-methylpiperidin-4-yl)-1H-pyrazol-4-yl)oxy)pyrazin-2-yl)-N-(2-cyanoethyl)-5-methylbenzenesulfonamide] | 7.36 | 6.93
Cc1cc(-c2cnc(N)c(Oc3cnn(C4CCN(C)CC4)c3)n2)cc(C2(NS(=O)(=O)CC(F)(F)F)CC2)c1 [Example A25, N-(l-(3-(5-amino-6-((1-(1-methylpiperidin-4-yl)-H-pyrazol-4-yl)oxy)pyrazin-2-yl)-5-methylphenyl)cyclopropyl)-2,2,2-trifluoroethane-1-sulfonamide] | 7.85 | 7.21
CCN1CCC(n2cc(Oc3nc(-c4cc(C)cc(S(=O)(=O)NC)c4)cnc3N)cn2)CC1 [Example A27, 3-(5-amino-6-((1-(1-ethylpiperidin-4-yl)-1H-pyrazol-4-yl)oxy)pyrazin-2-yl)-N,5-dimethylbenzenesulfonamide] | 7.24 | 7.09
Cc1cc(-c2cnc(N)c(Oc3cnn(C4CCN(C)CC4)c3)n2)cc(C)c1CNC1(C)COC1 [Example A60, 5-(3,5-dimethyl-4-(((3-methyloxetan-3-yl)amino)methyl)phenyl)-3-((1-(1-methylpiperidin-4-yl)-1H-pyrazol-4-yl)oxy)pyrazin-2-amine] | 7.40 | 7.04
Cc1cc(-c2cnc(N)c(Oc3cnn(C4CCN(C)CC4)c3)n2)cc(C)c1CNS(=O)(=O)C1CCCC1 [Example A40, N-(4-(5-amino-6-((1-(1-methylpiperidin-4-yl)-1H-pyrazol-4-yl)oxy)pyrazin-2-yl)-2,6-dimethylbenzyl)cyclopentanesulfonamide] | 7.48 | 6.90
CONC(=O)c1c(C)cc(-c2cnc(N)c(Oc3cnn(C4CCN(C)CC4)c3)n2)cc1C [Example A21, 4-(5-amino-6-((1-(1-methylpiperidin-4-yl)-1H-pyrazol-4-yl)oxy)pyrazin-2-yl)-N-methoxy-2,6-dimethylbenzamide] | 6.98 | 6.73
CNC(=O)NCc1ccc(-c2cnc(N)c(Oc3cnn(C4CCN(C)CC4)c3)n2)cc1C [Example A47, 1-(4-(5-amino-6-((1-(1-methylpiperidin-4-yl)-1H-pyrazol-4-yl)oxy)pyrazin-2-yl)-2-methylbenzyl)-3-methylurea] | 7.17 | 6.74
Cc1cc(-c2cnc(N)c(Oc3cnn(C4CCN(C)CC4)c3)n2)cc(C)c1CNS(=O)(=O)N1CCOCC1 [Example A71, N-(4-(5-amino-6-((1-(1-methylpiperidin-4-yl)-1H-pyrazol-4-yl)oxy)pyrazin-2-yl)-2,6-dimethylbenzyl)morpholine-4-sulfonamide] | 7.59 | 7.41
Cc1cc(-c2cnc(N)c(Oc3cnn(C4CCN(C)CC4)c3)n2)cc(C2(O)COC2)c1C1OCCO1 [Example A87, 3-(5-(5-amino-6-((1-(1-methylpiperidin-4-yl)-1H-pyrazol-4-yl)oxy)pyrazin-2-yl)-2-(1,3-dioxolan-2-yl)-3-methylphenyl)oxetan-3-ol] | 7.25 | 7.05
CC1OCCC1(O)c1cc(-c2cnc(N)c(Oc3cnn(C4CCN(C)CC4)c3)n2)cc(N2CCOC[C@H]2C)c1 (single isomer, unassigned) [Example A95A] | 7.36 | 6.91
CCN(CC)c1cc(-c2cnc(N)c(Oc3cnn(C4CCN(C)CC4)c3)n2)cc(CNC)n1 [Example B1, 5-(2-(diethylamino)-6-((methylamino)methyl)pyridin-4-yl)-3-((1-(1-methylpiperidin-4-yl)-1H-pyrazol-4-yl)oxy)pyrazin-2-amine] | 7.59 | 6.74
CNS(=O)(=O)c1cc(-c2cnc(N)c(Oc3cnn(C4CCN(C)CC4)c3)n2)cc(F)c1C [Example A18, 5-(5-amino-6-((1-(1-methylpiperidin-4-yl)-1H-pyrazol-4-yl)oxy)pyrazin-2-yl)-3-fluoro-N,2-dimethylbenzenesulfonamide] | 7.00 | 7.33
CC#Cc1c(C)cc(-c2cnc(N)c(Oc3cnn(C4CCN(C)CC4)c3)n2)cc1C1(O)COC1 [Example A81, 3-(5-(5-amino-6-((1-(1-methylpiperidin-4-yl)-1H-pyrazol-4-yl)oxy)pyrazin-2-yl)-3-methyl-2-(prop-1-yn-1-yl)phenyl)oxetan-3-ol] | 7.43 | 7.14

Now those with a higher pIC50 [1], led by results:

pIC50 [1] | pIC50 [2] | Compound
7.96 | 7.19 | C[C@@H]1COCCN1c1cc(-c2cnc(N)c(Oc3cnn(C4CCN(C)CC4)c3)n2)cc(C2(O)CCCOC2)c1 (stereo partly drawn) [Example A89, 3-(3-(5-amino-6-((1-(1-methylpiperidin-4-yl)-1H-pyrazol-4-yl)oxy)pyrazin-2-yl)-5-((R)-3-methylmorpholino)phenyl)tetrahydro-2H-pyran-3-ol]
8.05 | 7.21 | Cc1cc(-c2cnc(N)c(Oc3cnn(C4CCN(C)CC4)c3)n2)cc(C)c1CNC(=O)c1ccccc1 [Example A44, N-(4-(5-amino-6-((1-(1-methylpiperidin-4-yl)-1H-pyrazol-4-yl)oxy)pyrazin-2-yl)-2,6-dimethylbenzyl)benzamide]
8.15 | 7.00 | C[C@@H]1COCCN1c1cc(-c2cnc(N)c(Oc3cnn(C4CCN(C)CC4)c3)n2)cc(C2(O)CCCOC2)c1 (single isomer, unassigned) [Example A90B]
8.17 | 7.12 | CCC(C)(O)c1cc(C)cc(-c2cnc(N)c(Oc3cnn(C4CCN(C)CC4)c3)n2)c1 (stereo not drawn) [Example A70, 2-(3-(5-amino-6-((1-(1-methylpiperidin-4-yl)-1H-pyrazol-4-yl)oxy)pyrazin-2-yl)-5-methylphenyl)butan-2-ol]
8.26 | 7.29 | CN1CCC(n2cc(Oc3nc(-c4cc(N5CC6(COC6)C5)cc(C5(O)COC5)c4)cnc3N)cn2)CC1 [Example A78, 3-(3-(5-amino-6-((1-(1-methylpiperidin-4-yl)-1H-pyrazol-4-yl)oxy)pyrazin-2-yl)-5-(2-oxa-6-azaspiro[3.3]heptan-6-yl)phenyl)oxetan-3-ol]
8.27 | 7.32 | C[C@@H]1COCCN1c1cc(-c2cnc(N)c(Oc3cnn(C4CCN(C)CC4)c3)n2)cc([C@]2(O)CCOC2)c1 [Example A80B, (R)-3-(3-(5-amino-6-((1-(1-methylpiperidin-4-yl)-1H-pyrazol-4-yl)oxy)pyrazin-2-yl)-5-((R)-3-methylmorpholino)phenyl)tetrahydrofuran-3-ol]
8.43 | 7.55 | CN1CCC(n2cc(Oc3nc(-c4cc(N5CCC[C@H]5CO)cc(C5(O)COC5)c4)cnc3N)cn2)CC1 [Example A85, (S)-3-(3-(5-amino-6-((1-(1-methylpiperidin-4-yl)-1H-pyrazol-4-yl)oxy)pyrazin-2-yl)-5-(2-(hydroxymethyl)pyrrolidin-1-yl)phenyl)oxetan-3-ol]
